This is an account of results in patent publication US20230382949A1 (HEPTARES THERAPEUTICS LIMITED, priority 2020, published 2023).

Read-outs that look alike come from different tables or passages of the source. Starred links: 1 amine or outer side, 2 acyl side, 3 side chain; linkers in the order of their positions; H or OH if unused. Non-standard residues stand in square brackets, D forms with d. Residues, ends and D or L forms follow the SMILES beside them. *: point of attachment. Ala(piperidin-4-yl) = O=C([C@H](CC1CCN([*:3])CC1)N[*:1])[*:2]; Malonyl(2,2-Me2,histaminyl) = CC(C)(C(=O)NCCc1cnc[nH]1)C(=O)*; dBip = N[C@H](Cc1ccc(-c2ccccc2)cc1)C(=O)O; Oic = O=C(O)[C@@H]1C[C@@H]2CCCC[C@@H]2N1; Phe(4-Br) = N[C@@H](Cc1ccc(Br)cc1)C(=O)O; dPhe(4-Br) = N[C@H](Cc1ccc(Br)cc1)C(=O)O; X4 = CC(C)(C(=O)NCCCc1cnc[nH]1)C(=O)*; hArg = N=C(N)NCCCC[C@H](N)C(=O)O; 3Pal = N[C@@H](Cc1cccnc1)C(=O)O; Pip = O=C(O)[C@@H]1CCCCN1; Nle = CCCC[C@H](N)C(=O)O; Aib = CC(C)(N)C(=O)O

Experiment [1] deals with T1, human Apelin receptor (Homo sapiens, UniProt P35414).
T1 sequence (P35414 1-380): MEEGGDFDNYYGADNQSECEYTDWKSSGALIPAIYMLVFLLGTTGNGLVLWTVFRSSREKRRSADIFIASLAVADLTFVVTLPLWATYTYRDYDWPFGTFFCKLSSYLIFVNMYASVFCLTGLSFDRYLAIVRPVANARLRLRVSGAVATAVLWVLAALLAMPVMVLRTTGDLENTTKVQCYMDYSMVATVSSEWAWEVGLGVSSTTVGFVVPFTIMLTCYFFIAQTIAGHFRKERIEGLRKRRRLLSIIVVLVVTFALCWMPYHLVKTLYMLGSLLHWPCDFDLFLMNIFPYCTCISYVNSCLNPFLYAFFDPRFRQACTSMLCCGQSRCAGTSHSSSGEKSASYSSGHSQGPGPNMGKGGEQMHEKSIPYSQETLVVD
Put plainly: cAMP accumulation assay (HTRF), functional agonism of human Apelin receptors. It is filed as cell-based. As to conditions: for Emax: CHO. The text has this:
cAMP functional assay. cAMP production was quantified using the Homogeneous Time-Resolved Fluorescence (HTRF) cAMP dynamic-2 assay (Cisbio, France).
A general note: Changes in cAMP serve as a functional read-out for many G protein-coupled receptors.

In experiment [2] the target is T2, human Apelin receptor (Homo sapiens, UniProt P35414).
T2 construct: host or cells: CHO-K1 cells
The experiment in a line: β-arrestin accumulation assay, functional agonism of human Apelin receptors. In kind it is cell-based. The method in brief:
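After 16 h at 37° C., cells were exposed to increasing agonist concentrations in serum-free medium for 90 min at 37° C. Detection reagent added for 60 min in the dark; receptor activation read by fluorescence and EC50 derived from concentration-response curves.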
T2 sequence (P32121 whole entry partner, one chain of several): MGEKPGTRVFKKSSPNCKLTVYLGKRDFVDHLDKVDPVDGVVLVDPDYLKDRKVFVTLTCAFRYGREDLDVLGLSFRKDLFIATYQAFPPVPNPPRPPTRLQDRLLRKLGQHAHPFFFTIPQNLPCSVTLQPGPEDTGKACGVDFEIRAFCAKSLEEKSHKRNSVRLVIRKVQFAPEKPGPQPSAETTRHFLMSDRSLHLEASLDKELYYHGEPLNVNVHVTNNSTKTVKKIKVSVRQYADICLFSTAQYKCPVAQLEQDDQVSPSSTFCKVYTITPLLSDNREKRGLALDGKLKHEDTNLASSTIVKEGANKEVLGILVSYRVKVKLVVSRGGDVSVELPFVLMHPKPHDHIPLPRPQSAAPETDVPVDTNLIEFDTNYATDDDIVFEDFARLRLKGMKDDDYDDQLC

[3] abbreviates: Human Apelin agonist cAMP assay, CHO cells stably expressing the human Apelin receptor, 3 uM forskolin.
[4] abbreviates: pEC50, Human Apelin agonist cAMP assay, CHO cells stably expressing the human Apelin receptor, 3 uM forskolin.

As a reminder, the Emax is the maximal effect, on the per cent scale that the assay sets. Regarding `CC(C)C[C@H](NC(=O)[C@@H](CCCNC(=N)N)NC(=O)[C@@H]1CCCCN1C(=O)[C@H](CCCCNC(=N)N)NC(=O)[C@H](CCC(N)=O)NC(=O)[C@@H](CCCNC(=N)N)NC(=O)C(C)(C)C(=O)NCCc1cnc[nH]1)C(=O)NC(C)(C)C(=O)N[C@@H](Cc1c[nH]cn1)C(=O)N[C@@H](CC1CCNCC1)C(=O)N[C@@H](C)C(=O)N1[C@H](C(=O)N[C@@H](Cc2ccc(Br)cc2)C(=O)N2CCC[C@H]2C(=O)N[C@H](Cc2ccc(-c3ccccc3)cc2)C(=O)O)C[C@@H]2CCCC[C@@H]21` [Example 29] ({Malonyl(2,2-Me2,histaminyl)}-[dR]Q[hArg][Pip][dR]L[Aib]H[Ala(piperidin-4-yl)]A[Oic][Phe(4-Br)]P[dBip]-OH), on human Apelin receptor [1] (setting [3]), the Emax is 69.7%. The values for the EC50 at human Apelin receptor [1] (setting [4]) and at human Apelin receptor [2] were 2.51 nM and over 10000 nM, respectively.
For `CC(C)C[C@H](NC(=O)[C@@H](CCCNC(=N)N)NC(=O)[C@@H]1CCCCN1C(=O)[C@H](CCCNC(=N)N)NC(=O)[C@H](CCC(N)=O)NC(=O)[C@@H](CCCNC(=N)N)NC(=O)C(C)(C)C(=O)NCCc1cnc[nH]1)C(=O)NC(C)(C)C(=O)N[C@@H](Cc1c[nH]cn1)C(=O)N[C@@H](CC1CCNCC1)C(=O)NCC(=O)N1[C@H](C(=O)N[C@@H](Cc2ccc(Br)cc2)C(=O)N2CCC[C@H]2C(=O)N[C@H](Cc2ccc(-c3ccccc3)cc2)C(=O)O)C[C@@H]2CCCC[C@@H]21` [Example 30] ({Malonyl(2,2-Me2,histaminyl)}-[dR]QR[Pip][dR]L[Aib]H[Ala(piperidin-4-yl)]G[Oic][Phe(4-Br)]P[dBip]-OH) the same measures were 106%, 5.01 nM and over 10000 nM.
On to `CC(C)C[C@H](NC(=O)[C@@H](CCCNC(=N)N)NC(=O)[C@@H]1CCCCN1C(=O)[C@H](CCCCNC(=N)N)NC(=O)[C@H](CCC(N)=O)NC(=O)[C@@H](CCCNC(=N)N)NC(=O)C(C)(C)C(=O)NCCc1cnc[nH]1)C(=O)NC(C)(C)C(=O)N[C@@H](Cc1cccnc1)C(=O)N[C@@H](CC1CCNCC1)C(=O)NCC(=O)N1[C@H](C(=O)N[C@@H](Cc2ccc(Br)cc2)C(=O)N2CCC[C@H]2C(=O)N[C@H](Cc2ccc(-c3ccccc3)cc2)C(=O)O)C[C@@H]2CCCC[C@@H]21` [Example 31] ({Malonyl(2,2-Me2,histaminyl)}-[dR]Q[hArg][Pip][dR]L[Aib][3Pal][Ala(piperidin-4-yl)]G[Oic][Phe(4-Br)]P[dBip]-OH), for which the maximal effect (Emax) at human Apelin receptor [1] (read-out: Emax) was 75.4%. In addition, the EC50 is 10 nM on human Apelin receptor [1] (read-out: pEC50 (converted)) and over 10000 nM at human Apelin receptor [2].
For the compound `CCCC[C@H](NC(=O)[C@@H]1C[C@@H]2CCCC[C@@H]2N1C(=O)CNC(=O)[C@H](CC1CCNCC1)NC(=O)[C@H](Cc1ccc(Br)cc1)NC(=O)C(C)(C)NC(=O)[C@H](CC(C)C)NC(=O)[C@@H](CCCNC(=N)N)NC(=O)[C@@H]1CCCN1C(=O)[C@H](CCCCNC(=N)N)NC(=O)[C@H](CCC(N)=O)NC(=O)[C@@H](CCCNC(=N)N)NC(=O)C(C)(C)C(=O)NCCc1cnc[nH]1)C(=O)N1CCC[C@H]1C(=O)N[C@H](Cc1ccc(-c2ccccc2)cc1)C(=O)O` [Example 33] ({Malonyl(2,2-Me2,histaminyl)}-[dR]Q[hArg]P[dR]L[Aib][Phe(4-Br)][Ala(piperidin-4-yl)]G[Oic][Nle]P[dBip]-OH), the Emax on human Apelin receptor [1] (setting [3]) amounted to 63%. Besides, the EC50 on human Apelin receptor [1] (setting [4]) was 25.1 nM; at human Apelin receptor [2], over 10000 nM.
On human Apelin receptor [1] (setting [3]), `CCCC[C@H](NC(=O)[C@@H]1C[C@@H]2CCCC[C@@H]2N1C(=O)CNC(=O)[C@H](CC1CCNCC1)NC(=O)[C@H](Cc1ccc(Br)cc1)NC(=O)C(C)(C)NC(=O)[C@H](CC(C)C)NC(=O)[C@H](CCCNC(=N)N)NC(=O)[C@@H]1CCCN1C(=O)[C@@H](CCCNC(=N)N)NC(=O)[C@H](CCC(N)=O)NC(=O)[C@@H](CCCNC(=N)N)NC(=O)C(C)(C)C(=O)NCCc1cnc[nH]1)C(=O)N1CCC[C@H]1C(=O)N[C@H](Cc1ccc(-c2ccccc2)cc1)C(=O)O` [Example 34] ({Malonyl(2,2-Me2,histaminyl)}-[dR]Q[dR]PRL[Aib][Phe(4-Br)][Ala(piperidin-4-yl)]G[Oic][Nle]P[dBip]-OH) displayed an Emax of 60.6%. The EC50 at human Apelin receptor [1] (setting [4]) was 25.1 nM; at human Apelin receptor [2], over 10000 nM.
At human Apelin receptor [1] (setting [3]), `CC(C)C[C@H](NC(=O)[C@H](CCCNC(=N)N)NC(=O)[C@@H]1CCCN1C(=O)[C@@H](CCCNC(=N)N)NC(=O)[C@H](CCC(N)=O)NC(=O)[C@@H](CCCNC(=N)N)NC(=O)C(C)(C)C(=O)NCCc1cnc[nH]1)C(=O)NC(C)(C)C(=O)N[C@@H](Cc1ccc(Br)cc1)C(=O)N[C@@H](CC1CCNCC1)C(=O)NCC(=O)N1[C@H](C(=O)N[C@@H](Cc2ccccc2)C(=O)N2CCC[C@H]2C(=O)N[C@H](Cc2ccc(-c3ccccc3)cc2)C(=O)O)C[C@@H]2CCCC[C@@H]21` [Example 35] ({Malonyl(2,2-Me2,histaminyl)}-[dR]Q[dR]PRL[Aib][Phe(4-Br)][Ala(piperidin-4-yl)]G[Oic]FP[dBip]-OH) returned a maximum response (Emax) of 35.3%. Further, the EC50 was 63.1 nM on human Apelin receptor [1] (setting [4]) and over 10000 nM on human Apelin receptor [2].
For `CC(C)C[C@H](NC(=O)[C@@H](CCCNC(=N)N)NC(=O)[C@@H]1CCCN1C(=O)[C@H](CCCCNC(=N)N)NC(=O)[C@H](CCC(N)=O)NC(=O)[C@@H](CCCNC(=N)N)NC(=O)C(C)(C)C(=O)NCCCc1cnc[nH]1)C(=O)NC(C)(C)C(=O)N[C@@H](Cc1c[nH]cn1)C(=O)N[C@@H](CC1CCNCC1)C(=O)NCC(=O)N1[C@H](C(=O)N[C@@H](Cc2ccc(Br)cc2)C(=O)N2CCC[C@H]2C(=O)N[C@H](Cc2ccc(-c3ccccc3)cc2)C(=O)O)C[C@@H]2CCCC[C@@H]21` [Example 36] (X4-[dR]Q[hArg]P[dR]L[Aib]H[Ala(piperidin-4-yl)]G[Oic][Phe(4-Br)]P[dBip]-OH) the same measures were 55.7%, 5.01 nM and over 100000 nM.
On human Apelin receptor [1] (setting [3]), `CC(C)C[C@H](NC(=O)[C@@H](CCCNC(=N)N)NC(=O)[C@@H]1CCCN1C(=O)[C@H](CCCCNC(=N)N)NC(=O)[C@H](CCC(N)=O)NC(=O)C(C)(C)C(=O)NCCc1cnc[nH]1)C(=O)N[C@H](C)C(=O)N[C@@H](Cc1c[nH]cn1)C(=O)N[C@@H](CC1CCNCC1)C(=O)NCC(=O)N1[C@H](C(=O)N[C@@H](Cc2ccc(Br)cc2)C(=O)N2CCC[C@H]2C(=O)N[C@H](Cc2ccc(-c3ccccc3)cc2)C(=O)O)C[C@@H]2CCCC[C@@H]21` [Example 38] ({Malonyl(2,2-Me2,histaminyl)}-Q[hArg]P[dR]L[dA]H[Ala(piperidin-4-yl)]G[Oic][Phe(4-Br)]P[dBip]-OH) displayed a maximal response (Emax) of 27.9%. Moreover, the EC50 at human Apelin receptor [1] (setting [4]) is 31.6 nM; at human Apelin receptor [2], over 10000 nM.
The corresponding values for `CC(C)C[C@H](NC(=O)[C@@H](CCCNC(=N)N)NC(=O)[C@@H]1CCCN1C(=O)[C@H](CCCCNC(=N)N)NC(=O)[C@H](CCC(N)=O)NC(=O)C(C)(C)C(=O)NCCc1cnc[nH]1)C(=O)NC(C)(C)C(=O)N[C@@H](Cc1c[nH]cn1)C(=O)N[C@@H](CC1CCNCC1)C(=O)NCC(=O)N1[C@H](C(=O)N[C@@H](Cc2ccc(Br)cc2)C(=O)N2CCC[C@H]2C(=O)N[C@H](Cc2ccc(-c3ccccc3)cc2)C(=O)O)C[C@@H]2CCCC[C@@H]21` [Example 39] ({Malonyl(2,2-Me2,histaminyl)}-Q[hArg]P[dR]L[Aib]H[Ala(piperidin-4-yl)]G[Oic][Phe(4-Br)]P[dBip]-OH) are 62.1%, 31.6 nM and over 10000 nM.
For `CC(C)C[C@H](NC(=O)[C@H](CCCNC(=N)N)NC(=O)[C@@H]1CCCN1C(=O)[C@@H](CCCNC(=N)N)NC(=O)[C@H](CCC(N)=O)NC(=O)C(C)(C)C(=O)NCCc1cnc[nH]1)C(=O)NC(C)(C)C(=O)N[C@@H](Cc1c[nH]cn1)C(=O)N[C@@H](CC1CCNCC1)C(=O)NCC(=O)N1[C@H](C(=O)N[C@@H](Cc2ccc(Br)cc2)C(=O)N2CCC[C@H]2C(=O)N[C@H](Cc2ccc(-c3ccccc3)cc2)C(=O)O)C[C@@H]2CCCC[C@@H]21` [Example 40] ({Malonyl(2,2-Me2,histaminyl)}-Q[dR]PRL[Aib]H[Ala(piperidin-4-yl)]G[Oic][Phe(4-Br)]P[dBip]-OH) the same measures were 84.8%, 25.1 nM and over 10000 nM.
`CC(C)C[C@H](NC(=O)[C@H](CCCNC(=N)N)NC(=O)[C@@H]1CCCN1C(=O)[C@@H](CCCNC(=N)N)NC(=O)[C@H](CCC(N)=O)NC(=O)C(C)(C)C(=O)NCCc1cnc[nH]1)C(=O)NC(C)(C)C(=O)N[C@@H](Cc1c[nH]cn1)C(=O)N[C@@H](CC1CCNCC1)C(=O)NCC(=O)N1[C@H](C(=O)N[C@@H](Cc2ccc(Br)cc2)C(=O)N2CCC[C@H]2C(=O)N[C@H](Cc2ccc(Br)cc2)C(=O)O)C[C@@H]2CCCC[C@@H]21` [Example 41] ({Malonyl(2,2-Me2,histaminyl)}-Q[dR]PRL[Aib]H[Ala(piperidin-4-yl)]G[Oic][Phe(4-Br)]P[dPhe(4-Br)]-OH): at human Apelin receptor [1] (read-out: Emax), the maximum response (Emax) was 46.1%. In addition, the EC50 was 50.1 nM at human Apelin receptor [1] (read-out: pEC50 (converted)) and over 10000 nM at human Apelin receptor [2].
